From the Deep4Chem optical property database come the findings set out here.

This data set can be described thus: photoluminescence quantum yield (fraction); solvent given as SMILES.
Setting [1] is: in O=P(c1ccccc1)(c1ccccc1)c1ccccc1Oc1ccccc1P(=O)(c1ccccc1)c1ccccc1.

Structures are written as SMILES.

The compound `c1ccc2c(c1)c1ccc3cccc4c3c1c2c1c2cccc3ccc5c6ccccc6c(c5c32)c41` showed a photoluminescence quantum yield (in ClCCl) of 0.0031.
As to `Nc1ccc2c3c(cccc13)C(=O)c1ccccc1-2`, the photoluminescence quantum yield runs as follows: (in CC#N) 0.1; (in CC(C)=O) 0.11; (in CC(C)O) 0.03; (in CCCCOCCCC) 0.34; (in CCOC(C)=O) 0.21; (in CCOCC) 0.26. This compound gave a photoluminescence quantum yield (in CO) of 0.02; a photoluminescence quantum yield (in Cc1ccccc1) of 0.3; a photoluminescence quantum yield (in Clc1ccccc1) of 0.25; a photoluminescence quantum yield (in N#Cc1ccccc1) of 0.14; a photoluminescence quantum yield (in O=C1CCCCC1) of 0.15.
`Cc1cc(C)c(B(c2ccc(-c3nc4c5ccccc5c5ccccc5c4[nH]3)cc2)c2c(C)cc(C)cc2C)c(C)c1`: the photoluminescence quantum yield came out at 0.79 (in C1CCOC1); 0.71 (in CC(C)=O); 0.76 (in CS(C)=O); 0.92 (in Cc1ccccc1); 0.8 (in ClCCl).
Turning to `COc1ccc2c(-c3nc(-c4ccccc4Cl)no3)cc(=O)oc2c1`, the photoluminescence quantum yield is, setting by setting: (in CCO) 0.39; (in ClC(Cl)Cl) 0.19.
Regarding `Cc1ccccc1C1=C2C=c3c(oc4ccccc34)=[N+]2[B-](F)(F)n2c1cc1c3ccccc3oc12`, the photoluminescence quantum yield reads like this: (in C1CCCCC1) 0.88; (in CCOC(C)=O) 0.93; (in CO) 0.88.
Turning to `CCn1c2ccccc2sc2c(C#N)c3[nH]c4ccccc4sc3c(C#N)c21`, under “in ClC(Cl)Cl”, the photoluminescence quantum yield worked out at 0.32.
As to `CN(C)c1ccc(-c2nc3cccnc3[nH]2)cc1`, the photoluminescence quantum yield reads like this: (in C1CCCCC1) 0.72; (in CC#N) 0.76.
In turn, `C[Si]1(C)c2ccc(C#Cc3ccccc3)cc2C=Cc2cc(C#Cc3ccccc3)ccc21` had a photoluminescence quantum yield (in ClCCl) of 0.36.
On to `COc1ccc(C2=[N+]3C(=Nc4c(-c5ccccc5)c5c(n4[B-]3(F)F)-c3ccc(OC)cc3CC5)C(c3ccccc3)=C2)cc1`, for which the photoluminescence quantum yield (in ClC(Cl)Cl) turned out to be 0.38.
Compound `CC(C)[Si](C#Cc1c2nsnc2c(C#C[Si](C(C)C)(C(C)C)C(C)C)c2nc3c(ccc4ccccc43)nc12)(C(C)C)C(C)C` showed a photoluminescence quantum yield (in CCCCCC) of 0.42.
Regarding `Cc1cc(C)c(B2c3cc(C)ccc3N3c4ccc(C)cc4B(c4c(C)cc(C)cc4C)c4cc(C)cc2c43)c(C)c1`, the photoluminescence quantum yield amounted to 0.889 (in Cc1ccccc1-c1cccc(Oc2cc3c4c(c2)Oc2cc(-c5ccccc5C)ccc2B4c2ccc(-c4ccccc4C)cc2O3)c1) and 0.79 (in ClCCl).
In the case of `c1ccc2c(c1)ncc1ccc3cnc4ccccc4c3c12`, for the setting “in CC#N”, the photoluminescence quantum yield turned out to be 0.14.
The compound `CCn1c2c(-c3ccc(-c4cccs4)s3)cc(C(C)(C)C)cc2c2cc(C(C)(C)C)cc(-c3ccc(-c4cccs4)s3)c21` gave a photoluminescence quantum yield (in ClCCl) of 0.106.
Still for that read-out and setting: next, `CCOC(=O)/C=C/C1=[N+]2C(=C(c3c(C)cc(C)cc3C)c3ccc(/C=C/C(=O)OCC)n3[B-]2(F)F)C=C1`: 0.98.
With `COC(=O)c1ccccc1-c1c2ccc(=[NH2+])cc-2oc2cc(N)ccc12`, the photoluminescence quantum yield stood at 1 (in CC#N), 0.88 (in CCO), 0.74 (in CN(C)C=O) and 0.89 (in O).
The compound `CC(C)(C)c1ccc2oc3nc4oc5ccc(-n6c7ccccc7c(=O)c7ccccc76)cc5c4cc3c2c1` showed a photoluminescence quantum yield (in ClC(Cl)Cl) of 0.391.
For the compound `COc1ccc(-c2nc(-c3ccc(OC)cc3C)nc(-c3ccc(N4c5ccccc5C5(c6ccccc6-c6ccccc65)c5ccccc54)cc3C)n2)c(C)c1`, under setting [1], the photoluminescence quantum yield was found to be 0.51.
Regarding `COC(=O)C(CCCCNC(=O)CCNc1cccc2ccccc12)NC(C)=O` (stereo not drawn), for the setting “in CCO”, the photoluminescence quantum yield is 0.54.
Turning to `CN(CC(O)c1cccc(O)c1)c1ccc([N+](=O)[O-])c(C2CC(c3cccc4ccccc34)=NN2c2ccccc2)c1` (stereo not drawn), the photoluminescence quantum yield turned out to be 0.16 (in C1CCCCC1); 0.27 (in C1CCOC1); 0.5 (in C1COCCO1); 0.25 (in CC#N); 0.17 (in CC(C)O); 0.25 (in CCOC(C)=O). Besides, the photoluminescence quantum yield stood at 0.23 (in CCOCC); 0.19 (in CO); 0.18 (in Cc1ccccc1); 0.22 (in ClC(Cl)Cl); 0.16 (in O).
Under “in C1CCOC1”, `CC(C)(C)c1ccc(-c2c(-c3ccc(N(c4ccccc4)c4ccccc4)cc3)cc(-c3ccc(N(c4ccccc4)c4ccccc4)cc3)c(-c3ccc(C(C)(C)C)cc3)c2-c2ccc(C(C)(C)C)cc2)cc1` showed a photoluminescence quantum yield of 0.587.
On to `COc1ccc(-c2csc(/C(C#N)=C/c3ccc(C#N)cc3)n2)cc1`, for which the photoluminescence quantum yield runs as follows: (in CC#N) 0.008; (in CCO) 0.008; (in CN(C)C=O) 0.002; (in Cc1ccccc1) 0.248; (in ClCCl) 0.065.
Consider `CCCCCOc1cc2oc(=O)c3c4ccc(O)cc4c4ccc5cccc6c(c1)c2c3c4c56`, for which the photoluminescence quantum yield (in C1CCOC1) was determined as 0.27.
Consider `CCCCN1c2ccccc2Sc2cc(/C=C/C3=Nc4ccc5ccccc5c4C3(C)C)ccc21`, for which the photoluminescence quantum yield is 0.09 (in C1CCCCC1); 0.12 (in C1CCOC1); 0.17 (in C1COCCO1); 0.05 (in CC#N); 0.06 (in CC(C)=O); 0.07 (in CC(C)O). Besides, the photoluminescence quantum yield worked out at 0.13 (in CCOC(C)=O); 0.14 (in CCOCC); 0.01 (in CO); 0.09 (in CS(C)=O); 0.18 (in Cc1ccccc1); 0.11 (in ClCCl).
Compound `CCOC(=O)/C(C#N)=C\c1ccc2c(c1)c1ccccc1n2-c1ccc(OC)cc1` returned a photoluminescence quantum yield (in C1CCOC1) of 0.13; a photoluminescence quantum yield (in CC#N) of 0.04; a photoluminescence quantum yield (in CC(C)=O) of 0.05; a photoluminescence quantum yield (in CCOC(C)=O) of 0.08; a photoluminescence quantum yield (in CO) of 0.02; a photoluminescence quantum yield (in CS(C)=O) of 0.03. In addition, the photoluminescence quantum yield by setting is: (in Cc1ccccc1) 0.14; (in ClC(Cl)Cl) 0.09.
With `COc1ccc2nc3c(nc2c1)c(-c1ccccc1)nn3C`, the photoluminescence quantum yield reads like this: (in C1CCCCC1) 0.22; (in C1CCOC1) 0.34; (in CC#N) 0.35.
Consider `CCNc1ccc2c(C(F)(F)F)cc(=O)oc2c1`, for which the photoluminescence quantum yield is, setting by setting: (in C1CCC2CCCCC2C1) 0.72; (in C1CCCCC1) 0.74; (in CC1CCCCC1) 0.77; (in CC#N) 0.56; (in CC(C)=O) 0.53; (in CC(C)O) 0.54. Further, the photoluminescence quantum yield runs as follows: (in CCC(C)CC) 0.75; (in CCCC(C)C) 0.77; (in CCCCCC) 0.76; (in CCCCCCO) 0.54; (in CCCCO) 0.53; (in CCO) 0.47. The photoluminescence quantum yield amounted to 0.61 (in CCOC(C)=O) and 0.46 (in CO).
On to `CCOC(=O)c1cc(C(=O)OCC)c2cc(N)ccc2n1`, for which the photoluminescence quantum yield (in CCO) stood at 0.4.
The compound `CN(C)c1ccc(/C=C/c2cccnn2)cc1` yielded a photoluminescence quantum yield (in ClCCl) of 0.02.
On to `COc1cc(/C=C/C(=O)CC(=O)/C=C/c2ccc(O)c(OC)c2)ccc1O`, for which the photoluminescence quantum yield was found to be 0.014 (in C1CCCCC1); 0.075 (in CC#N); 0.022 (in CN(C)C=O); 0.017 (in CO); 0.024 (in CS(C)=O); 0.052 (in c1ccccc1).
Under setting [1], `Cc1c(-c2ccc(N3c4ccccc4C(C)(C)c4ccccc43)cc2)ncnc1-c1ccc(N2c3ccccc3C(C)(C)c3ccccc32)cc1` registered a photoluminescence quantum yield of 0.75.
`C[Si]1(C)C(c2ccccc2)=Cc2ccccc21` registered a photoluminescence quantum yield (in ClCCl) of 0.55.
With `C=CC1CN2CCC1CC2[C@H](O)c1ccnc2ccc(OC)cc12` (stereo partly drawn), the photoluminescence quantum yield (in O) worked out at 0.546.
Compound `CCCCC(CC)Cn1c2cc(C#N)ccc2c2ccc(C#Cc3ccc4ccc5c(C#Cc6ccc7c8ccc(C#N)cc8n(CC(CC)CCCC)c7c6)ccc6ccc3c4c65)cc21` (stereo not drawn) had a photoluminescence quantum yield (in ClCCl) of 0.38.
Regarding `Fc1c(F)c(-n2c3ccccc3c3ccccc32)c(F)c(F)c1/C=C/c1ccc(C(=C(c2ccccc2)c2ccccc2)c2ccccc2)cc1`, where the note is “in Cc1ccccc1”, the photoluminescence quantum yield turned out to be 0.003.
`CN(C)c1ccc(C2=CC3=C(c4ccc([N+](=O)[O-])cc4)[C@H]4c5ccccc5[C@]3(S2)c2ccccc24)cc1`: the photoluminescence quantum yield (in ClCCl) worked out at 0.003.
The compound `COc1cc2c(cc1/C=C/C(=C(C#N)C#N)c1ccccc1)c1ccccc1n2C` yielded a photoluminescence quantum yield (in C1CCOC1) of 0.008; a photoluminescence quantum yield (in CC#N) of 0.014; a photoluminescence quantum yield (in CCO) of 0.012; a photoluminescence quantum yield (in CCOC(C)=O) of 0.009; a photoluminescence quantum yield (in CN(C)C=O) of 0.022; a photoluminescence quantum yield (in CO) of 0.012. For the same compound, the photoluminescence quantum yield reads like this: (in CS(C)=O) 0.033; (in Cc1ccccc1) 0.007; (in ClC(Cl)Cl) 0.018; (in ClCCl) 0.022.
`Cc1ccc(-c2cnc3nn4ccccc4c3n2)cc1` registered a photoluminescence quantum yield (in C1CCOC1) of 0.26.
`Oc1cccc(O)c1-c1c2ccc(=[N+]3CCCCC3)cc-2oc2cc(N3CCCCC3)ccc12` came in with a photoluminescence quantum yield (in CCO) of 0.26.
On to `CC(C)[Si]1(C(C)C)c2cc(C=C(C#N)C#N)ccc2-c2ccc(N(C)C)cc21`, for which the photoluminescence quantum yield is, setting by setting: (in C1CCCCC1) 0.08; (in CC#N) 0.32; (in CCO) 0.16; (in CCOCC) 0.56; (in CS(C)=O) 0.23; (in ClCCl) 0.56. The photoluminescence quantum yield (in c1ccccc1) is 0.36.
